In patent US6528675B1, “Cyanohydrin ethers and esters as high-sensitivity enzyme substrates” (The Regents of the University of California, priority 2001, dated 2003):

Columns and labels:
cytochrome P450 = experiment: Substrate response to P450 enzyme activity, rat microsomal enzyme preparation; format: biochemical, rats; settings: pH 7.6, 37° C., substrate 10 mM final concentration, average of three tests
Excerpt: This example compares four cytochrome P450 substrates within the scope of this invention with two cytochrome P450 substrates that are outside the scope of this invention. The four invention substrates were methoxynaphthalen-2-yl acetonitrile (whose synthesis is shown in Example 8 above and which is designated below as Compound III), ethoxynaphthalen-2-yl acetonitrile (synthesis shown in Example 9, Compound IV), benzoxynaphthalen-2-yl acetonitrile (synthesis shown in Example 10, Compound V), and pentoxynaphthalen-2-yl acetonitrile (synthesis shown in Example 11, Compound VI). The substrates outside the scope of the invention were ethoxyresorufin (designated below as Compound A) and pentoxyresorufin (designated below as Compound B). The structures of these last two substrates are as follows: [drawing 56]
All substrates were tested against a microsomal enzyme preparation from 8-week-old Fisher […] rats, by first combining 890 mL of the preparation with 2 mL of phosphate buffer (pH 7.6, 0.2 M) and incubating the mixture at 37° C. for 5 minutes. The substrate (10 mL) was then added (10 mM final concentration), followed by an appropriate signal generating system (100 mL). The samples were immediately read by fluorometer at 460 nm for 1 minute with excitation at 330 nm. The results in terms of specific activity, both with and without the enzyme system, are shown in Table VII, in which each entry represents an average of three tests.

[1] = Change in optical properties, fluorescence of esters and hydrolysis products; format: physicochemical
Excerpt: The substrates representing the invention were (R/S)-acetic acid cyano-(6-methoxynaphthalen-2-yl)-methyl ester (the title compound of Synthesis Example 1 above) and (trans/cis)-3-(2,2-dichlorovinyl)-2,2-dimethylcyclopropanecarboxylic acid cyano-(6-methoxynaphthalen-2-yl)-methyl ester (the title compound of Synthesis Example 2 above). The substrates of the prior art were methylumbelyl acetate (for detection by fluorescence emission) and 2-naphthacetate (for detection by UV absorption) in assay solutions with different pH values. These prior art substrates were selected because both are widely used and both have aromatic systems similar to the two test compounds.
Again using tris-maleate at pH levels of 6.5, 7.5, and 8.5, fluorescence studies were performed at concentrations of 10 μM, and fluorescence of the starting esters and the hydrolysis products (hydroxycoumarin in the case of methylumbelyl acetate and 6-methoxy-naphthaldehyde in the case of the Example 1 substrate) were determined by conventional instrumentation. The results are listed in Table III in which “MUA” denotes methylumbelyl acetate, “Compound I” denotes the Example 1 substrate, “Ex” denotes the optimal excitation wavelength in nm, “Emmax” denotes the maximal emission wavelength in nm, and “RFU” denotes the relative fluorescence units multiplied by 1,000.

[2] = Change in optical properties, UV absorption of esters and hydrolysis products; format: physicochemical; settings: for ε (molar absorptivity): in M-1 cm-1 (unit assumed)
Excerpt: The substrates representing the invention were (R/S)-acetic acid cyano-(6-methoxynaphthalen-2-yl)-methyl ester (the title compound of Synthesis Example 1 above) and (trans/cis)-3-(2,2-dichlorovinyl)-2,2-dimethylcyclopropanecarboxylic acid cyano-(6-methoxynaphthalen-2-yl)-methyl ester (the title compound of Synthesis Example 2 above).

Q: For `N#CC(OCc1ccccc1)c1ccc2ccccc2c1` (stereo not drawn), which melting point is on record?
A: 36 to 37 °C

Q: With `CCC1OC1CC(=O)OC(C#N)c1ccc2ccccc2c1` (stereo not drawn) as the compound, how does the melting point read?
A: 60 to 61 °C

Q: For `N#CC(OC(=O)C/C=C/c1ccccc1)c1ccc2ccccc2c1` (stereo not drawn), which melting point is on record?
A: 74 to 75 °C

Q: Which melting point does the source give for `CC(=O)OC(C#N)c1ccc2ccccc2c1` (racemic) here?
A: 37 to 38 °C

Q: Which results are given for `CCOc1ccc2nc3ccc(=O)cc-3oc2c1` [Compound A, ethoxyresorufin, reference compound]?
A: Specific Activity, With Enzyme System (cytochrome P450): 89.0 ± 4.6 pmol/min/mg protein; Specific Activity, Without Enzyme System (cytochrome P450): 52.2 ± 1.9 pmol/min/mg protein

Q: For `CCCCCOc1ccc2nc3ccc(=O)cc-3oc2c1` [Compound B, pentoxyresorufin, reference compound], which “Specific Activity, With Enzyme System” value (cytochrome P450) is on record?
A: 62.5 ± 5.2 pmol/min/mg protein

Q: What about the “Specific Activity, Without Enzyme System” value (cytochrome P450) of the same compound?
A: 41.8 ± 2.2 pmol/min/mg protein

Q: For `COC(C#N)c1ccc2ccccc2c1` (stereo not drawn) [Compound III, Methoxynaphthalene-2-yl Acetonitrile], which “Specific Activity, With Enzyme System” value (cytochrome P450) is on record?
A: 275.8 ± 20.5 pmol/min/mg protein

Q: And the “Specific Activity, Without Enzyme System” value (cytochrome P450)?
A: 45.9 ± 3.0 pmol/min/mg protein

Q: And the melting point?
A: 47 to 48 °C

Q: Which “Specific Activity, With Enzyme System” value (cytochrome P450) does the source give for `CCOC(C#N)c1ccc2ccccc2c1` (stereo not drawn) [Compound IV, Ethoxynaphthalene-2-yl Acetonitrile] here?
A: 292.6 ± 16.2 pmol/min/mg protein

Q: What about the “Specific Activity, Without Enzyme System” value (cytochrome P450) of the same compound?
A: 40.0 ± 1.2 pmol/min/mg protein

Q: And the melting point?
A: 53 to 54 °C

Q: With `COc1ccc2cc(C=O)ccc2c1` [aldehyde, 6-methoxy-2-naphthaldehyde] as the compound, how does the “emission peak” value ([1]; over the three pH levels tested (6.5, 7.5, 8.5)) read?
A: 460 nm

Q: And the “Emmax (maximal emission wavelength)” value ([1]; tris-maleate pH 6.5, 10 μM)?
A: 450 nm

Q: And the “Ex (optimal excitation wavelength)” value ([1]; tris-maleate pH 6.5, 10 μM)?
A: 360 nm

Q: What about the “RFU (relative fluorescence units multiplied by 1,000)” value ([1]; tris-maleate pH 6.5, 10 μM) of the same compound?
A: 17,783 RFU

Q: And the “Emmax (maximal emission wavelength)” value ([1]; tris-maleate pH 7.5, 10 μM)?
A: 485 nm

Q: And the “Ex (optimal excitation wavelength)” value ([1]; tris-maleate pH 7.5, 10 μM)?
A: 360 nm

Q: What about the “RFU (relative fluorescence units multiplied by 1,000)” value ([1]; tris-maleate pH 7.5, 10 μM) of the same compound?
A: 19,250 RFU

Q: What about the “Emmax (maximal emission wavelength)” value ([1]; tris-maleate pH 8.5, 10 μM) of the same compound?
A: 510 nm

Q: What about the “Ex (optimal excitation wavelength)” value ([1]; tris-maleate pH 8.5, 10 μM) of the same compound?
A: 360 nm

Q: And the “RFU (relative fluorescence units multiplied by 1,000)” value ([1]; tris-maleate pH 8.5, 10 μM)?
A: 19,256 RFU

Q: What about the “OD (optical density)” value ([2]; tris-maleate pH 6.5, 10 μM) of the same compound?
A: 0.473

Q: And the λmax ([2]; tris-maleate pH 6.5, 10 μM)?
A: 314 nm

Q: And the “ε (molar absorptivity)” value ([2]; tris-maleate pH 6.5, 10 μM)?
A: 11,870

Q: And the “OD (optical density)” value ([2]; tris-maleate pH 7.5, 10 μM)?
A: 0.468

Q: And the λmax ([2]; tris-maleate pH 7.5, 10 μM)?
A: 313 nm

Q: What about the “ε (molar absorptivity)” value ([2]; tris-maleate pH 7.5, 10 μM) of the same compound?
A: 11,700

Q: What about the “OD (optical density)” value ([2]; tris-maleate pH 8.5, 10 μM) of the same compound?
A: 0.465

Q: What about the λmax ([2]; tris-maleate pH 8.5, 10 μM) of the same compound?
A: 314 nm

Q: And the “ε (molar absorptivity)” value ([2]; tris-maleate pH 8.5, 10 μM)?
A: 11,630

Q: Which “Emmax (maximal emission wavelength)” value ([1]; tris-maleate pH 6.5, 10 μM) does the source give for hydroxycoumarin [HO-coumarin] here?
A: 460 nm

Q: And the “Ex (optimal excitation wavelength)” value ([1]; tris-maleate pH 6.5, 10 μM)?
A: 330 nm

Q: What about the “RFU (relative fluorescence units multiplied by 1,000)” value ([1]; tris-maleate pH 6.5, 10 μM) of the same compound?
A: 18,830 RFU

Q: What about the “Emmax (maximal emission wavelength)” value ([1]; tris-maleate pH 7.5, 10 μM) of the same compound?
A: 460 nm

Q: What about the “Ex (optimal excitation wavelength)” value ([1]; tris-maleate pH 7.5, 10 μM) of the same compound?
A: 330 nm

Q: What about the “RFU (relative fluorescence units multiplied by 1,000)” value ([1]; tris-maleate pH 7.5, 10 μM) of the same compound?
A: 19,025 RFU

Q: And the “Emmax (maximal emission wavelength)” value ([1]; tris-maleate pH 8.5, 10 μM)?
A: 460 nm

Q: What about the “Ex (optimal excitation wavelength)” value ([1]; tris-maleate pH 8.5, 10 μM) of the same compound?
A: 330 nm

Q: What about the “RFU (relative fluorescence units multiplied by 1,000)” value ([1]; tris-maleate pH 8.5, 10 μM) of the same compound?
A: 19,195 RFU
